{
  "source": "ChEMBL document CHEMBL3507680",
  "about": "“University of Dundee, Gates Library screen for HepG2 cell viability”",
  "test": "Human HepG2 cell viability assay in 384 well format",
  "assay_type": "toxicity, cell-based",
  "design": "dose 125 nL, time 70.5 hour; concentration not given beside the values",
  "conditions": "HepG2 cells, read-out: Inhibition",
  "data": [
    {"smiles": "COCC1CN(C(=O)Cc2cccs2)Cc2nnn(C)c21", "note": "(stereo unspecified)", "values": [
      {"measurement": "cytotoxicity at 70.5 h", "value": -14.9, "unit": "%"}
    ]},
    {"smiles": "Cc1nc(N2CCCC2)nc2c1CCN(C(=O)NC(C)C)CC2", "values": [
      {"measurement": "cytotoxicity at 70.5 h", "value": 30.9, "unit": "%"}
    ]},
    {"smiles": "CC(C)NC(=O)c1cc2c(s1)CCN2C(=O)CN(C)C", "values": [
      {"measurement": "cytotoxicity at 70.5 h", "value": -4.91, "unit": "%"}
    ]},
    {"smiles": "CC(C)NC(=O)C1CN(C(=O)Cc2ccccc2)CC12CCOCC2", "note": "(stereo unspecified)", "values": [
      {"measurement": "cytotoxicity at 70.5 h", "value": -13.2, "unit": "%"}
    ]},
    {"smiles": "COc1ncccc1C(=O)N1CC[C@H]2C[C@@H](c3nccs3)O[C@@H]2C1", "values": [
      {"measurement": "cytotoxicity at 70.5 h", "value": -23.1, "unit": "%"}
    ]},
    {"smiles": "O=C(c1ccccc1)N1CC[C@H]2C[C@@H](c3nccs3)O[C@@H]2C1", "values": [
      {"measurement": "cytotoxicity at 70.5 h", "value": -17.1, "unit": "%"}
    ]},
    {"smiles": "CC(C)NC(=O)C1CN(C(=O)Cc2cccc(F)c2)CC12CCOCC2", "note": "(stereo unspecified)", "values": [
      {"measurement": "cytotoxicity at 70.5 h", "value": 10.1, "unit": "%"}
    ]},
    {"smiles": "CN(C)S(=O)(=O)N1C[C@H]2C[C@H](C(=O)Nc3ccccc3)[C@@H](C1)O2", "values": [
      {"measurement": "cytotoxicity at 70.5 h", "value": -5.82, "unit": "%"}
    ]},
    {"smiles": "CC(C)CC(=O)N1CC[C@H]2C[C@H](c3nccs3)O[C@@H]2C1", "values": [
      {"measurement": "cytotoxicity at 70.5 h", "value": 2.63, "unit": "%"}
    ]},
    {"smiles": "Cc1nc(N2CCCC2)nc2c1CCN(C(=O)NC1CCCC1)CC2", "values": [
      {"measurement": "cytotoxicity at 70.5 h", "value": 1.4, "unit": "%"}
    ]},
    {"smiles": "O=C(Nc1ccccc1)[C@H]1C[C@@H]2CN(S(=O)(=O)c3ccccc3)C[C@H]1O2", "values": [
      {"measurement": "cytotoxicity at 70.5 h", "value": -10.9, "unit": "%"}
    ]},
    {"smiles": "CCC1=N[C@@]2(CC[C@@H]3CN(CC(=O)N(C)C)C[C@@H]32)C(=O)N1CC(C)C", "values": [
      {"measurement": "cytotoxicity at 70.5 h", "value": -6.91, "unit": "%"}
    ]},
    {"smiles": "Cc1cc(CN2CCC3(CC2)COC(COc2ccccn2)C3)no1", "note": "(stereo unspecified)", "values": [
      {"measurement": "cytotoxicity at 70.5 h", "value": 43, "unit": "%"}
    ]},
    {"smiles": "c1cncc(CN2CCn3cc(Cn4cccn4)nc3C2)c1", "values": [
      {"measurement": "cytotoxicity at 70.5 h", "value": -7.42, "unit": "%"}
    ]},
    {"smiles": "CNC(=O)[C@H]1C[C@@H]2CN(C(=O)Nc3ccccc3)C[C@H]1O2", "values": [
      {"measurement": "cytotoxicity at 70.5 h", "value": -25.2, "unit": "%"}
    ]},
    {"smiles": "Cc1nc(CN2CC3(CCN(c4nccs4)C3)CC2=O)cs1", "note": "(stereo unspecified)", "values": [
      {"measurement": "cytotoxicity at 70.5 h", "value": -1.92, "unit": "%"}
    ]},
    {"smiles": "CCNc1ncc2c(n1)CN(c1ccc(C)c(C)c1)C2=O", "values": [
      {"measurement": "cytotoxicity at 70.5 h", "value": -11.2, "unit": "%"}
    ]},
    {"smiles": "CCNc1ncc2c(n1)CN(c1ccc(CC)cc1)C2=O", "values": [
      {"measurement": "cytotoxicity at 70.5 h", "value": -8.79, "unit": "%"}
    ]},
    {"smiles": "Cc1nn(C)c2cnn(CCCNS(=O)(=O)Cc3ccccc3)c12", "values": [
      {"measurement": "cytotoxicity at 70.5 h", "value": 10.4, "unit": "%"}
    ]},
    {"smiles": "CC(C)(C)NC(=O)CCn1ncc2c(Cl)cccc21", "values": [
      {"measurement": "cytotoxicity at 70.5 h", "value": -5.97, "unit": "%"}
    ]},
    {"smiles": "Cc1nn(C)c(C)c1CNC(=O)CCn1ncc2c(Cl)cccc21", "values": [
      {"measurement": "cytotoxicity at 70.5 h", "value": -1.2, "unit": "%"}
    ]},
    {"smiles": "CCn1nc(C)c2ncnc(N3CCCC(C)C3)c21", "note": "(stereo unspecified)", "values": [
      {"measurement": "cytotoxicity at 70.5 h", "value": 8.26, "unit": "%"}
    ]},
    {"smiles": "CCn1cc(Cl)c(C(=O)Nc2ccc3c(c2)C(C)(C)C(=O)N3C)n1", "values": [
      {"measurement": "cytotoxicity at 70.5 h", "value": -16.6, "unit": "%"}
    ]},
    {"smiles": "Cc1cc(NC(=O)CCn2nc(C)c3ccccc32)n(C(C)C)n1", "values": [
      {"measurement": "cytotoxicity at 70.5 h", "value": -18, "unit": "%"}
    ]},
    {"smiles": "CCn1ccc(NC(=O)CN2C(=O)C(C)(C)c3ccccc32)n1", "values": [
      {"measurement": "cytotoxicity at 70.5 h", "value": -11.1, "unit": "%"}
    ]},
    {"smiles": "CCCc1nc(NCCCn2cccn2)c2c(n1)c(C)nn2CC", "values": [
      {"measurement": "cytotoxicity at 70.5 h", "value": -4.19, "unit": "%"}
    ]},
    {"smiles": "CCCc1nc(Nc2cccc(C(N)=O)c2)c2c(n1)c(C)nn2CC", "values": [
      {"measurement": "cytotoxicity at 70.5 h", "value": -4.15, "unit": "%"}
    ]},
    {"smiles": "CCCc1nc(N2CCCC(C)C2)c2c(n1)c(C)nn2CC", "note": "(stereo unspecified)", "values": [
      {"measurement": "cytotoxicity at 70.5 h", "value": -4, "unit": "%"}
    ]},
    {"smiles": "CCCc1nc(N2CCCCC2)c2c(n1)c(C)nn2CC", "values": [
      {"measurement": "cytotoxicity at 70.5 h", "value": 15.4, "unit": "%"}
    ]},
    {"smiles": "Cc1nn(C)c2c(N3CCN(C)CC3)nc(C3CC3)nc12", "values": [
      {"measurement": "cytotoxicity at 70.5 h", "value": -11.8, "unit": "%"}
    ]},
    {"smiles": "CC(C)(C)NC(=O)COc1ccc(CNCCOc2ccccn2)cc1", "values": [
      {"measurement": "cytotoxicity at 70.5 h", "value": -2.01, "unit": "%"}
    ]},
    {"smiles": "CCCc1nc(NCCCn2ccnc2)c2c(n1)c(C)nn2CC", "values": [
      {"measurement": "cytotoxicity at 70.5 h", "value": -11.1, "unit": "%"}
    ]},
    {"smiles": "CCn1nc(C)c2nc(C(C)C)nc(N3CCOCC3)c21", "values": [
      {"measurement": "cytotoxicity at 70.5 h", "value": 11.2, "unit": "%"}
    ]},
    {"smiles": "CCn1nc(C)c2nc(C(C)C)nc(NCCCn3ccnc3)c21", "values": [
      {"measurement": "cytotoxicity at 70.5 h", "value": -17.9, "unit": "%"}
    ]},
    {"smiles": "CSc1ncnc(NCc2cccs2)c1C#N", "values": [
      {"measurement": "cytotoxicity at 70.5 h", "value": -10.7, "unit": "%"}
    ]},
    {"smiles": "Cc1cccc2c1cnn2CCCNC(=O)c1ccnn1C", "values": [
      {"measurement": "cytotoxicity at 70.5 h", "value": -12.7, "unit": "%"}
    ]},
    {"smiles": "Cc1cccc2c1cnn2CCCNC(=O)C1CC1", "values": [
      {"measurement": "cytotoxicity at 70.5 h", "value": -4.27, "unit": "%"}
    ]},
    {"smiles": "CCCC(=O)NCCCn1ncc2c(C)cccc21", "values": [
      {"measurement": "cytotoxicity at 70.5 h", "value": -12.9, "unit": "%"}
    ]},
    {"smiles": "CCn1cc(NC(=O)C2CCC(=O)N2Cc2ccco2)cn1", "note": "(stereo unspecified)", "values": [
      {"measurement": "cytotoxicity at 70.5 h", "value": -6.35, "unit": "%"}
    ]},
    {"smiles": "Cc1cc(C(=O)N(C)Cc2cccs2)nc(N2CCCCC2)n1", "values": [
      {"measurement": "cytotoxicity at 70.5 h", "value": -6.38, "unit": "%"}
    ]},
    {"smiles": "CCN(CC)C(=O)c1nnsc1-c1ccccc1", "values": [
      {"measurement": "cytotoxicity at 70.5 h", "value": -10.3, "unit": "%"}
    ]},
    {"smiles": "CN(C)CCCNC(=O)c1nnsc1-c1ccccc1", "values": [
      {"measurement": "cytotoxicity at 70.5 h", "value": -8.68, "unit": "%"}
    ]},
    {"smiles": "CC(C)CNC(=O)c1nnsc1-c1ccccc1", "values": [
      {"measurement": "cytotoxicity at 70.5 h", "value": -11.5, "unit": "%"}
    ]},
    {"smiles": "CCOc1cc(C(=O)N2CCOCC2)cc2occc12", "values": [
      {"measurement": "cytotoxicity at 70.5 h", "value": 22.3, "unit": "%"}
    ]},
    {"smiles": "CCOc1cc(C(=O)N2CCN(CC)CC2)cc2occc12", "values": [
      {"measurement": "cytotoxicity at 70.5 h", "value": -3.29, "unit": "%"}
    ]},
    {"smiles": "CCN(CC)CCNS(=O)(=O)c1cccc(CSC)c1", "values": [
      {"measurement": "cytotoxicity at 70.5 h", "value": -8.72, "unit": "%"}
    ]},
    {"smiles": "CCN(CC)c1nc(C)cc(C(=O)Nc2cnn(CC)c2)n1", "values": [
      {"measurement": "cytotoxicity at 70.5 h", "value": -12.1, "unit": "%"}
    ]},
    {"smiles": "CCn1ccc(NC(=O)CCc2c(C)nn(C)c2C)n1", "values": [
      {"measurement": "cytotoxicity at 70.5 h", "value": 18.2, "unit": "%"}
    ]},
    {"smiles": "Cc1ccc(CN2C(=O)CCC2C(=O)Nc2cnn(C)c2)o1", "note": "(stereo unspecified)", "values": [
      {"measurement": "cytotoxicity at 70.5 h", "value": -4.24, "unit": "%"}
    ]},
    {"smiles": "Cc1cc(C(=O)N(C)Cc2cccs2)nc(N2CCCC2)n1", "values": [
      {"measurement": "cytotoxicity at 70.5 h", "value": -6.81, "unit": "%"}
    ]},
    {"smiles": "CCOCc1cccc(S(=O)(=O)Nc2ccn(CC)n2)c1", "values": [
      {"measurement": "cytotoxicity at 70.5 h", "value": -0.0962, "unit": "%"}
    ]},
    {"smiles": "COc1cccc(CNCc2ccccc2Cl)c1O", "values": [
      {"measurement": "cytotoxicity at 70.5 h", "value": 26.4, "unit": "%"}
    ]},
    {"smiles": "COc1cccc(CNCc2ccc(F)c(Cl)c2)c1O", "values": [
      {"measurement": "cytotoxicity at 70.5 h", "value": 27, "unit": "%"}
    ]},
    {"smiles": "CCCn1cc(C(=O)n2nc(C)cc2C)c(S(=O)(=O)N2CCSCC2)n1", "values": [
      {"measurement": "cytotoxicity at 70.5 h", "value": -7.23, "unit": "%"}
    ]},
    {"smiles": "O=C(NCCc1ccccn1)c1[nH]nc2c1CCCC2", "values": [
      {"measurement": "cytotoxicity at 70.5 h", "value": 3.78, "unit": "%"}
    ]},
    {"smiles": "CSc1ccc(-c2noc(CN(CC(C)C)CC(C)C)n2)cc1", "values": [
      {"measurement": "cytotoxicity at 70.5 h", "value": -12.7, "unit": "%"}
    ]}
  ]
}
